Measurements: US9631096B2, “Dye compositions, methods of preparation, conjugates thereof, and methods of use” (CORNELL UNIVERSITY, priority 2012, dated 2017)

What was measured:
[1] = Single-molecule FRET with donor and acceptor dyes on ribosomal proteins S13 and L1; type: physicochemical, E. coli; conditions: ribosome S13/L1 labels, 532 nm excitation, same day and conditions, FIG. 12
From the text: In this study, donor and acceptor fluorophores are attached to two ribosomal proteins (S13 small subunit; L1 large subunit, respectively).
Ribosomal protein S13 was PCR cloned from E. coli strain K12 genomic DNA into the pPROEX HTb vector with a TEV-protease-cleavable histidine (His)6 tag and a 12-residue peptide encoding the S6 epitope for the Sfp phosphopantetheinyl transferase reaction (amino acid sequence, [sequence]) fused at the N terminus (N-Sfp). {Yin, J., Lin, A. J., Golan, D. E. & Walsh, C. […] 1, 280-285 (2006)} After transformation of this plasmid into an E. coli ΔS13 knockout strain, cells were cultured and ribosomes were harvested as previously described. {Wang, L., Altman, R. B. & Blanchard, S. C. […]
Single-molecule FRET experiments were performed at room temperature in Tris-polymix with 5 mM Mg2+ buffer, as previously described {Wang, L., Altman, R. B. & Blanchard, S. C. […] The smFRET data were acquired by directly exciting the Cy3 fluorophore at 532 nm (LaserQuantum) while the Cy3 and Cy5 intensities were simultaneously recorded in Metamorph (Molecular Devices) with a 40-ms integration time. The data were analyzed in MATLAB (MathWorks) and plotted in Origin (OriginLab), as previously described. {Munro, J. B., Altman, R. B., O'Connor, N. & Blanchard, S. C.

[2] = Laser flash photolysis (time-resolved transient absorption) of Cy5 derivatives with benzophenone sensitizer; type: physicochemical; conditions: for lifetime of the 700 nm transient: acetonitrile, BP 5 mM, Cy5 22 μM
From the text: This experiment examined whether enhanced photostability of the Cy5 fluorophore, when covalently linked to protective agents (COT, NBA or Trolox) (Chart 1) can be specifically attributed to a triplet state quenching mechanism using laser flash photolysis (time-resolved transient absorption spectroscopy).
Because the formation of triplet states of Cy5 is inefficient (triplet quantum yield <0.003) upon direct excitation, a triplet sensitizer was employed to more efficiently populate the Cy5 triplet state (^3Cy5*) through an energy transfer mechanism (eq 1).
Deoxygenated acetonitrile solutions containing BP and Cy5 were irradiated with light pulses from a Nd-YAG laser at 355 nm (5 ns pulse width) to generate transient absorption kinetic traces across the visible spectrum. From these traces, transient absorption spectra at different times after the laser pulse were constructed (FIG. 3). Directly after the laser pulse the spectrum is dominated by the triplet absorption of BP, which is known to show a peak at 525 nm. […] Assignment of this new transient at 700 nm as the triplet state absorption of Cy5 was subsequently confirmed by performing quenching studies in the presence of a small amount of oxygen (0.45 mM; generated by bubbling the acetonitrile solution with a gas mixture of 5% O2 and 95% N2).
In addition to different protective agents (COT, NBA and Trolox), the length of the spacer between Cy5 and the protective agent was also varied. Laser flash photolysis experiments in argon-saturated acetonitrile solutions using BP as the sensitizer were performed on each of the Cy5 derivatives. […] The initial growth in transient absorption is caused by the energy transfer process from ^3BP* to the Cy5 chromophore analog in eq 1, which is then followed by the decay of the Cy5 triplet state. The concentrations of the Cy5 derivatives were optimized in order to ensure accurate triplet lifetime determination. […]

[3] = Single-molecule TIRF fluorescence imaging of dye-labeled duplex DNA (photostability); type: physicochemical
Method: Each DNA strand was individually labeled with a single, NHS-activated “self-healing” fluorophore and hybridized to a complementary strand. Purified duplexes were used for single-molecule experiments.
All experiments were performed using a laboratory built, prism-based TIRE apparatus. Biotinylated DNA molecules were immobilized via a biotin-streptavidin interaction within microfluidic channels constructed on quartz slides. Fluorescence from surface-immobilized molecules, illuminated via the evanescent wave generated by total internal reflection of a 640 nm laser source, was collected using a water-immersion objective and imaged onto a EMCCD camera. […]
The photophysical properties of fluorophores were analyzed using automated software built in-house using Matlab. To extract kinetic parameters of blinking and photobleaching, the fluorescence traces were normalized to the mean fluorescence intensity of each dataset and idealized using the SKM algorithm and a 3-state model with one fluorescent (on) state, a transient dark state (blinking) and a permanent dark state (photobleaching). Time on (τon) was calculated by fitting the cumulative distribution to an exponential function.
By tracking the fluorescence of individual molecules over time, the intensity and duration of fluorescence, as well as the kinetics of blinking and photobleaching could be quantified. […]

[4] = cited from earlier work

Compound | brightness and duration of donor and acceptor fluorescence / quality of FRET data [1] | τtriplet (triplet lifetime) ([2]; deoxygenated acetonitrile, BP sensitizer, 355 nm pulse, triplet absorption at 700 nm) [μs] | lifetime of the 700 nm transient ([2]; in the absence of O2 (argon purged)) [μs] | lifetime of the 700 nm transient ([2]; in the presence of O2 (0.45 mM; 5% O2/95% N2)) [μs] | time period of fluorescence before blinking or photobleaching (visual inspection of traces) ([3]; individual fluorescence traces, dye on double stranded DNA, 641 nm) | Average number of photons (10^4 photons) detected before photobleaching or blinking ([3]; single-molecule measurements, dye on duplex DNA, TIRF, 641 nm illumination, deoxygenated solution) | quantum yield ([4]; fluorescence) | triplet quantum yield ([4]; upon direct excitation)
CCN1C(=CC=CC2=[N+](CCCCCC(=O)O)c3ccc(S(=O)(=O)O)cc3C2(C)C)C(C)(C)c2cc(S(=O)(=O)[O-])ccc21 [Cy3] | short-lived and are noisy and relatively difficult to analyze |  |  |  |  |  |  | 
CCN1/C(=C/C=C/C=C/C2=[N+](CCCCCC(=O)O)c3ccc(S(=O)(=O)O)cc3C2(C)C)C(C)(C)c2cc(S(=O)(=O)[O-])ccc21 [Cy5] | short-lived and are noisy and relatively difficult to analyze | 63 ± 3 | ~22 | 1.7 | shortest | 2.1 ± 0.1 10^4 photons | approximately 0.3 | < 0.003
